# Key:
# Assay type in all cases: cell-based
# [1] = tested on: T-47D cells; experiment: Inhibition of cell proliferation in T-47D cells (CCK-8, 6 days); details: 6 days of treatment
# Outline: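 T-47D cells at 3,000 cells/well in RPMI 1640 with 10% FBS were exposed to a concentration series of PROTAC compounds for 6 days at 37 °C, 5% CO2. Viability was read by CCK-8, and IC50 values were derived for proliferation inhibition.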
# [2] = biological target: T1, ERα (Homo sapiens, UniProt P03372); experiment: Degradation of ERα in T-47D cells (immunoblotting, 4 h); design: host or cells: T-47D; details: 10nM compound
# T1 sequence (P03372 1-595): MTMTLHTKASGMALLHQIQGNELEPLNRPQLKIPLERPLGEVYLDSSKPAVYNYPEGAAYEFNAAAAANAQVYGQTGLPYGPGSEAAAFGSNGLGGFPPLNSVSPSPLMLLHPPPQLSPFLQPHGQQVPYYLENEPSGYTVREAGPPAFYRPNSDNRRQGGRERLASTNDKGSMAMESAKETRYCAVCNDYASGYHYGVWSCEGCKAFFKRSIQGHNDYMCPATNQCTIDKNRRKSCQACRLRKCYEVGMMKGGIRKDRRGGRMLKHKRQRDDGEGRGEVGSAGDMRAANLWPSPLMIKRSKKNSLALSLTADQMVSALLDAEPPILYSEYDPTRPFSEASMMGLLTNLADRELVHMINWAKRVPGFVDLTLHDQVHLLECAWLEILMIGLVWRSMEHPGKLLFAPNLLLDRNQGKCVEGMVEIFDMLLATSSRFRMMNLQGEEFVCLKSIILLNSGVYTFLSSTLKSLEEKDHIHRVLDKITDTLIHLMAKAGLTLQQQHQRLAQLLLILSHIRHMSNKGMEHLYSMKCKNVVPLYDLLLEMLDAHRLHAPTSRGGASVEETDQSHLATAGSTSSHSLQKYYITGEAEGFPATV
# Outline: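 T-47D cells were treated with compound (final 0.15-1000 nM, DMSO) for 4 h at 37°C, 5% CO2. Cells were lysed in RIPA buffer with protease inhibitor, and ERα protein in the cleared lysate was measured by immunoblotting.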
# [3] = tested on: MCF-7 cells; experiment: Inhibition of cell proliferation of MCF-7 cells (CCK-8, 6 days); details: 6 days of treatment, Table 4
# Text: Test Example 3 Inhibitory effect of the PROTAC compounds provided in the present disclosure on cell proliferation of MCF-7 cells
# The complete medium required for MCF-7 cells (source ATCC) was DMEM (gibco, Product number :11995-065) basal medium containing 10% fetal bovine serum. MCF-7 cells were inoculated in 96-well plates at a density of 800 cells/well, and different concentrations of the PROTAC compounds 1-55 provided in the examples of the present disclosure and a positive control sample ARV-471 (source: Innochem) were prepared to treat the cells, and the cells were treated at 37°C in a cell culture incubator with 5% CO2 for 6 days. Cell viability was detected using a CCK-8 kit (Beyotime, Product number: C0040) according to the manufacturer's instructions. The IC50 values of each PROTAC compound after 6 days of treatment were calculated using GraphPadPrism software based on the inhibition rate, and the results are shown in Table 4. Table 4 IC50 values for inhibition of the proliferation of MCF-7 cells by the PROTAC compounds of the present disclosure and positive control sample
# [4] = biological target: T1, ERα; experiment: Degradation of ERα in MCF-7 cells (immunoblotting, 4 h); details: 10nM compound
# Outline: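 MCF-7 cells treated 4 h at 37°C with compounds at 0.15-1000nM final. ERα in lysates measured by immunoblot, with band grayscale normalized to an internal reference protein. Degradation rate calculated against DMSO-treated control.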
# [5] = tested on: MCF-7 cells; experiment: Inhibition of cell proliferation of MCF-7 cells (CCK-8, 9 days); details: treated for 9 days, CCK-8 kit (Table 6)
# Outline: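 MCF-7 cells seeded at 800 cells/well in DMEM with 10% FBS, exposed to a range of compound concentrations for 9 days at 37°C, 5% CO2. Viability read by CCK-8; IC50 derived for proliferation inhibition.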
smiles,measurement,setting,value
O=C1CCC(N2C(=O)c3cc4c(cc3C2=O)OC2(CC4)CCN(CC3CCN(c4ccc(C5c6ccc(O)cc6CCC5c5ccccc5)cc4)CC3)CC2)C(=O)N1 (stereo not shown) [A1],IC50,[1]; Table 2,8 nM
same,Degradation rate (%) of ERα in T-47D cells,[2],-11%
same,IC50,[3],49500 nM
same,Degradation rate (%) of ERα in MCF-7 cells,[4],-17%
O=C1CCC(N2C(=O)c3cc4c(cc3C2=O)OC2(CC4)CCN(CC3CN(c4ccc(C5c6ccc(O)cc6CCC5c5ccccc5)cc4)C3)CC2)C(=O)N1 (stereo not shown) [A6],IC50,[1]; Table 2,177 nM
same,Degradation rate (%) of ERα in T-47D cells,[2],-23%
same,IC50,[3],48200 nM
same,Degradation rate (%) of ERα in MCF-7 cells,[4],-17%
O=C1CCC(N2C(=O)c3cc4c(cc3C2=O)OC2(CC4)CCN(c3ccc(C4c5ccc(O)cc5CCC4c4ccccc4)cc3)CC2)C(=O)N1 (stereo not shown) [A7],IC50,[1]; Table 2,167 nM
same,Degradation rate (%) of ERα in T-47D cells,[2],-14%
same,IC50,[3],99900 nM
same,Degradation rate (%) of ERα in MCF-7 cells,[4],-29%
O=C1CCC(N2C(=O)c3cc4c(cc3C2=O)C2(CCN(CC3CCN(c5ccc(C6c7ccc(O)cc7CCC6c6ccccc6)cc5)CC3)CC2)CO4)C(=O)N1 (stereo not shown) [A8],IC50,[1]; Table 2,104 nM
same,IC50,[1]; Table 3,104 nM
same,Degradation rate (%) of ERα in T-47D cells,[2],-22%
same,IC50,[5],19 nM
same,IC50,[3],19000 nM
same,Degradation rate (%) of ERα in MCF-7 cells,[4],-42%
O=C1CCC(N2C(=O)c3cc4c(cc3C2=O)OC2(CC4)CCN(C3CC4(CCN(c5ccc(C6c7ccc(O)cc7CCC6c6ccccc6)cc5)CC4)C3)CC2)C(=O)N1 (stereo not shown) [A10],IC50,[1]; Table 2,35 nM
same,Degradation rate (%) of ERα in T-47D cells,[2],-37%
same,IC50,[3],37200 nM
same,Degradation rate (%) of ERα in MCF-7 cells,[4],-3%
O=C1CCC(N2C(=O)c3cc4c(cc3C2=O)OC2(CC4)CCN(C3CCC4(CC3)CCN(c3ccc(C5c6ccc(O)cc6CCC5c5ccccc5)cc3)CC4)CC2)C(=O)N1 (stereo not shown) [A12],IC50,[1]; Table 2,127 nM
same,IC50,[1]; Table 3,127 nM
same,Degradation rate (%) of ERα in T-47D cells,[2],-1%
same,IC50,[5],4.6 nM
same,IC50,[3],4600 nM
same,Degradation rate (%) of ERα in MCF-7 cells,[4],4%
O=C1CCC(N2C(=O)c3cc4c(cc3C2=O)OCC2(CCN(C3CC5(CCN(c6ccc(C7c8ccc(O)cc8CCC7c7ccccc7)cc6)CC5)C3)CC2)C4)C(=O)N1 (stereo not shown) [A13],IC50,[1]; Table 2,31 nM
same,Degradation rate (%) of ERα in T-47D cells,[2],12%
same,IC50,[3],24500 nM
same,Degradation rate (%) of ERα in MCF-7 cells,[4],-9%
O=C1CCC(N2C(=O)c3cc4c(cc3C2=O)OCC2(CCN(C3CCC5(CC3)CN(c3ccc(C6c7ccc(O)cc7CCC6c6ccccc6)cc3)C5)CC2)C4)C(=O)N1 (stereo not shown) [A14],IC50,[1]; Table 2,44 nM
same,Degradation rate (%) of ERα in T-47D cells,[2],4%
same,IC50,[3],4820 nM
same,Degradation rate (%) of ERα in MCF-7 cells,[4],5%
O=C1CCC(N2C(=O)c3cc4c(cc3C2=O)OCC2(CCN(C3CCC5(CC3)CCN(c3ccc(C6c7ccc(O)cc7CCC6c6ccccc6)cc3)CC5)CC2)C4)C(=O)N1 (stereo not shown) [A15],IC50,[1]; Table 2,63 nM
same,Degradation rate (%) of ERα in T-47D cells,[2],16%
same,IC50,[3],1190 nM
same,Degradation rate (%) of ERα in MCF-7 cells,[4],-2%
O=C1CCC(N2C(=O)c3cc4c(cc3C2=O)C2(CCN(C3CCC5(CC3)CN(c3ccc(C6c7ccc(O)cc7CCC6c6ccccc6)cc3)C5)CC2)CO4)C(=O)N1 (stereo not shown) [A20],IC50,[1]; Table 2,25 nM
same,Degradation rate (%) of ERα in T-47D cells,[2],36%
same,IC50,[3],11600 nM
same,Degradation rate (%) of ERα in MCF-7 cells,[4],18%
O=C1CCC(N2Cc3cc4c(cc3C2=O)CCC2(CCN(C3CCC5(CC3)CCN(c3ccc(C6c7ccc(O)cc7CCC6c6ccccc6)cc3)CC5)CC2)O4)C(=O)N1 (stereo not shown) [A21],IC50,[1]; Table 2,19 nM
same,Degradation rate (%) of ERα in T-47D cells,[2],-15%
same,IC50,[3],2520 nM
same,Degradation rate (%) of ERα in MCF-7 cells,[4],4%
O=C1CCC(N2Cc3cc4c(cc3C2=O)OC2(CC4)CCN(C3CCC4(CC3)CCN(c3ccc(C5c6ccc(O)cc6CCC5c5ccccc5)cc3)CC4)CC2)C(=O)N1 (stereo not shown) [A22],IC50,[1]; Table 2,57 nM
same,Degradation rate (%) of ERα in T-47D cells,[2],19%
same,IC50,[3],940 nM
same,Degradation rate (%) of ERα in MCF-7 cells,[4],13%

# Source: patent EP4656642A1, “ESTROGEN RECEPTOR PROTEOLYSIS TARGETING CHIMERA COMPOUND AND USE THEREOF” (GAN & LEE PHARM CO., LTD, priority 2023, dated 2024)
